In US5484778A, “Phthalocyanine photosensitizers for photodynamic therapy and methods for their use” (priority 1993, dated 1996):
“Also recorded” adds a separate entry of the source.

Experiments:
[1] = Solubility
[2] = Retention in tumor tissue (pharmacokinetics); conditions: in vivo
[3] = test system: RIF-1 tumors; experiment: Histology and DNA fragmentation in PDT-treated tumors; format: in vivo, C3H/HeN mice
[4] = test system: RIF-1 tumors; experiment: PDT of RIF-1 implanted tumors (Table 7); format: in vivo, C3H/HeN mice; conditions: for effect on tumor volume / growth (in words): 1 mg/kg
In short: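 C3H/HeN mice each carried one RIF-1 fibrosarcoma on the back and received 1 mg/kg phthalocyanine as a corn-oil suspension. Volume was measured daily by calipers from a 50±10 mm^3 start and calculated with the hemiellipsoid model.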

[5] = test system: V79 cells; experiment: Clonogenicity, killing of V79 cells using photodynamic therapy (Table 3); format: cell-based, Chinese hamster
In short: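 V79 Chinese hamster lung fibroblasts were loaded with 0.5 or 1.0 μM phthalocyanine, then about 18 h later irradiated with increasing doses of 675 nm broad-band red light (tungsten-halogen lamp, 600 nm high-pass filter). Recorded value is the light dose killing 90% of cells, or, failing that, the maximum kill (% survival) and its dose.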

[6] = test system: Chinese hamster V79-379 cells; experiment: Clonogenic cell survival / photocytotoxicity in V79 cells (Table 1, FIG. 1, FIG. 2); format: cell-based; conditions: for CF10 (AlPcCl)/CF10 (Pc) / F10 (AlPcCl)/F10 (Pc): 18 h; for photosensitizing efficiency / photocytotoxicity (in words): V79 cells, red light
Protocol: FIG. 1 is a graph illustrating the photodynamic efficacy of the various compositions of the present invention in comparison to AlPcCl. The phthalocyanine composition compounds of the present invention were tested for their photodynamic efficiency against Chinese hamster fibroblast V79 cells by colony formation. Monolayer cultures were treated with the indicated phthalocyanine composition for 18 hours, irradiated with various fluences of red light, and immediately trypsinized and replated at appropriate aliquots in triplicate. Colonies of at least 50 cells were counted after 7-10 days. The plating efficiency of the untreated cells was approximately 90%.
In this regard, in FIG. 2 the data of FIG. 1 were replotted as a function of the product of the amount of cell-associated phthalocyanine and the light fluence.
Chinese hamster V79-379 lung fibroblasts were grown in monolayer culture in McCoy's 5A medium (Gibco Laboratories, Grand Island, N.Y.) augmented with 10% calf serum and buffered with 20 mM HEPES (pH 7.4).
The cells were treated with 1 μM AlPcCl (from Eastman Kodak, Rochester, N.Y.) or with phthalocyanine compositions I-VI (0.5-1.0 μM final concentration in the medium) for 18 hours by adding the appropriate volume of a 1.0 mM stock solution in dimethylformamide (DMF) to the culture medium. The growth medium was replaced with 4 ml Hank's balanced salt solution (HBSS), and the cells were irradiated. The light source was a 500 W tungsten-halogen lamp located approximately 29 inches below the surface of a glass exposure tray. The visible light administered to the cells was filtered to allow passage of only that portion of the visible spectrum above 600 nm (Lee Primary red filter No. 106, Vincent Lighting, Cleveland, Ohio). The fluence rate was approximately 0.074 kJ/m^2 /s at the level of the cell monolayer.
Cells were irradiated at a density of approximately 2×10^6 per 25 cm^2 flask. Immediately after irradiation, the cell monolayer was treated with trypsin, and appropriate aliquots were plated in triplicate to give 100 to 200 colonies in each 10-cm Petri dish. Cell survival was determined by the ability of the cells to form colonies containing at least 50 cells. The response of cells treated with 1 μM AlPcCl and light was compared in each experiment.
Photocytotoxicity of the phthalocyanines compounds I to VI was also assessed by clonogenic assay (Table 1, FIG. 1). In all experiments, 1 μM AlPcCl was included for comparison purposes. From the survival curves (FIG. 1), the fluence reducing the cell survival to 10% (F10) was obtained. The ratio of the F10 for AlPcCl and the F10 for the test compound is recorded in Table 1.
In order to take differences in cellular uptake into consideration in the assessment of the relative efficiency of these phthalocyanines as photosensitizers of V79 cells, the survival data were replotted against the product of intracellular phthalocyanine concentration and light fluence (FIG. 2). From these curves, the product of intracellular concentration and light fluence reducing survival to 10% (CF10) was obtained, and comparisons of the values for AlPcCl and the test compounds are recorded in Table 1.

[7] = test system: RIF-1 tumors; experiment: PDT of RIF-1 implanted tumors with PcIV and multiple exposures to light (Table 8); format: in vivo, C3H/HeN mice; conditions: for % of Mice Surviving: 1 mg/kg
Protocol: To overcome the regrowth, RIF-1 tumors were implanted in C3H/HeN mice, and the mice were treated with PcIV followed by multiple exposures to light. For multiple exposures to light to be successful, the tumor tissue must retain sufficient levels of the photosensitizer over the exposure period.
Thereafter, the tumors were irradiated with an argon ion pumped dye laser tuned at 675 nm for the total light dose of 135 J/cm^2 (75 mW/cm^2).

In the case of CN(C)CCC[Si](C)(C)O[Si]1(O)n2c3c4ccccc4c2N=C2N=C(N=c4c5ccccc5c(n41)=NC1=NC(=N3)c3ccccc31)c1ccccc12 (centres unmarked) [Compound IV, HOSiPcOsi(CH3)2)(CH2)3 N(CH3)2], the solubility in solvents [1] is reported as “soluble in CH2 Cl2 and toluene”, the “retention in tumor tissue after administration” value [2] is reported as at least 7 days and the “apoptotic bodies in the tumor” value ([3]; histological examination) is reported as “presence of apoptotic bodies in the tumor”. For the same molecule, the “DNA fragment sizes, multiples of” value ([3]; mouse, in vivo) was 180-200 base pairs, the “Doubling Time of Initial Tumor Volume after PDT” value ([4]; 1 mg/kg in corn oil, 675 nm, 135 J/cm^2) was 16 days and the “effect on tumor volume / growth (in words)” value ([4]; listed as Pc IV) was “significantly impair the growth of the tumors”. The “effect on tumor volume / growth (in words)” value ([4]; listed as PcIV) was “particularly effective in reducing tumor volume”, the tumor regrowth ([4]; after PDT, from the tumor margins) was “regrowth of tumors from the tumor margins occurred” and the “LD 90” value ([5]; 0.5 μM, 18 h, light dose killing 90% of cells) was 4 kJ/m^2. For the same molecule, the “photosensitizing activity, killing V79 cells (in words)” value ([5]; discussion of Table 3) was “most active at killing V79 cells”, the “CF10 (AlPcCl)/CF10 (Pc)” value ([6]; 0.5 μM) was 3.9 and the “F10 (AlPcCl)/F10 (Pc)” value ([6]; 0.5 μM) was 1.85. The “CF10 (AlPcCl)/CF10 (Pc)” value ([6]; 1.0 μM, CF10 = intracellular concentration x fluence reducing survival to 10%) was 3.5, the “F10 (AlPcCl)/F10 (Pc)” value ([6]; 1.0 μM, F10 = fluence reducing survival to 10%) was 4.25 and the “photosensitizing efficiency / photocytotoxicity (in words)” value [6] was “almost twice as efficient as the standard AlPcCl; also recorded: most efficient photosensitizer”. The “photosensitizing efficiency / photocytotoxicity (in words)” value ([6]; listed as SiPc(OH)(OSi(CH3)2 (CH2)3 N(CH3)2)) was “most efficient photosensitizer, as judged by uptake, growth delay, and photocytotoxicity”, the “% of Mice Surviving” value ([7]; 360 h) was 100% and the “% of Mice Surviving” value ([7]; 2880 h) was 0%. The “% of Mice Surviving” value ([7]; DPPC liposomes, 30 days, exposure day 2) was 100%, the “% of Mice Surviving” value ([7]; corn oil, 15 days, exposure day 2) was 100% and the “% of Mice Surviving” value ([7]; corn oil, 15 days, exposure days 2-6) was 100%. For the same molecule, the tumor regrowth ([7]; DPPC liposomes, 30 days after PDT, irradiated only one or two times) was “Tumor regrowth occurred 30 days after photodynamic therapy”, the tumor regrowth ([7]; DPPC liposomes, 120 days after PDT, three to five exposures) was “No tumor regrowth occurred even at 120 days” and the tumor regrowth ([7]; DPPC liposomes, 300 days after light treatment) was “no evidence of tumor regrowth”. For the same molecule, the tumor cure ([7]; DPPC liposomes, irradiated three, four or five times at 24 hour interval) was “complete tumor cure was evident” and the tumor regrowth ([7]; corn oil, 15 days after PDT, all multiple exposure protocols) was “regrowth of tumors was evident 15 days after photodynamic therapy in all the multiple exposure protocols”.
